One assay concerns the target FGFR2 (Homo sapiens, UniProt P21802). As to the kind of experiment: Kinase inhibition activity test, isotope labeling: FGFR2. Conditions: for Activity inhibition rate FGFR2 (h) / inhibition at 10 µM: test compound at a concentration of 10 μM; for IC50: ATP 90 μM, read-out: FGFR2 IC50 value (inhibitory activity value); for inhibition at 10 µM: read-out: Activity inhibition rate FGFR2 (h). It is filed as biochemical. The method, then:
(§1) The purpose of this experiment was to test the inhibitory activity of the compound of the invention for in vitro kinase with the isotope labeling method (the γ phosphate group on ATP was labeled). In this experiment, the in vitro activity inhibition of such kinases as FLT3, VEGFR2, FLT1, FLT4, RET, c-RAF, B-RAF, c-KIT, PDGFα, PDGFβ, FGFR2, FGFR1, EphA2, EphB2, SRC, ABL, ALK and Met was tested respectively. Staurosporine was reference molecule (or referred to as positive control). The kinase inhibition activity of the test compound was expressed by half-inhibitory concentration (IC50) or the kinase activity inhibition rate of the test compound at a concentration of 10 μM. The IC50 value could be obtained by calculating the kinase activity inhibition rate of the test compound at different concentrations.
(§2) 20 mM 3-(N-morpholinyl)propanesulfonic acid (MOPS); 1 mM ethylenediaminetetraacetic acid (EDTA), 0.01% Brij 35 (Brij-35), 5% glycerol, 0.1% mercaptoethanol, 1 mg/mL bovine serum albumin (BSA), 10 mM manganous dichloride solution (MnCl2), 0.1 mg/mL glutamic acid/tyrosine (4:1) polypeptide (poly(Glu, Tyr)4:1), 50 μM EAIYAAPFAKKK (substrate of FLT3), 0.33 mg/mL myelin basic protein (substrate of VEGFR2), 250 μM KKKSPGEYVNIEFG (substrate of FLT1(h)), 500 μM GGEEEEYFELVKKKK (substrate of FLT4(h)), 250 μM KKKSPGEYVNIEFG (substrate of RET), 0.66 mg/mL myelin basic protein (substrate of C-RAF), 250 μM GGMEDIYFEFMGGKKK (substrate of c-Kit), 250 μM GGMEDIYFEFMGGKKK (substrate of PDGFα), 250 μM KKKSPGEYVNIEFG (substrate of FGFR1), […] GGEEEEYFELVKKKK (substrate of SRC), 50 μM EAIYAAPFAKKK (substrate of ABL), 250 μM KKKSPGEYVNIEFG (substrate of ALK), 250 μM KKKSPGEYVNIEFG (substrate of Met(h)), 10 mM magnesium acetate and γ-^33 P-ATP solution, stop buffer (3% phosphate buffer), washing buffer (75 mM phosphate solution), methanol, Filtermat A membrane, FLT3, VEGFR2, FLT3, VEGFR2, FLT1, FLT4, RET, c-RAF, B-RAF, c-KIT, PDGFRα, PDGFRβ, FGFR2, FGFR1, EphA2, EphB2, SRC, ABL, ALK, Met and other kinases, and the test compounds.
(§3) Buffers (8 mM MOPS with pH value of 7.0, 0.2 mM EDTA and 10 mM MnCl2), (5-10 mU) kinases to be tested (FLT3, VEGFR2, FLT1, FLT4, RET, c-RAF, B-RAF, c-KIT, PDGFRα, PDGFRβ, FGFR2, FGFR1, EphA2, EphB2, SRC, ABL, ALK and Met), substrates of kinases to be tested (refer to experimental materials), 10 mM magnesium acetate and γ-^33 P-ATP solution, and test compounds at different concentrations were added to a reaction tube orderly. […] Reaction was terminated with 5 μL 3% phosphate buffer finally, and 10 μL reaction solution was titrated to the Filtermat A membrane; solution was washed for 3 times with 75 mM phosphate solution with each time lasting 5 minutes, and then washed once with methanol. Finally, the Filtermat A membrane was dried, and scintillation counting was performed on the membrane, with scintillation count reflecting the phosphorylation degree of the substrates, so that the activity inhibition of kinase could be characterized.

In assay [1] the test system is human leukemia cell line MV4-11. As to the kind of experiment: In vitro tumor cell proliferation inhibition (MTT): MV4-11. It is filed as cell-based. The text has this: (§4) The purpose of the experiment was to test the inhibition activity of the compounds of the invention for in vitro human tumor cell proliferation by the methyl thiazolyl tetrazolium (MTT) colorimetry.
(§5) Main reagents: RPMI-1640, fetal bovine serum, pancreatin, etc. were purchased from Gibco BRL Company (Invitrogen Corporation, USA) and IMDM medium that was purchased from American Type Culture Collection (ATCC). Methyl thiazolyl tetrazolium (MTT) and dimethyl sulfoxide (DMSO) were products from Sigma Company (USA). Pyrazolopyrimidine derivatives were composed by the inventor. During in vitro experiment, 100% DMSO was prepared into 10 mM storage solution, the solution was stored in a refrigerator at −20° C. for future use, and was diluted to the required concentration with complete culture solution before use.
(§6) Cell line and culture: Human leukemia cell line MV4-11, Jurkat, K562, human thyrophyma cell line TT, human gastric carcinoma cell line MKN-45, human malignant melanoma cell lines A375 and A875, human pancreatic carcinoma cell line panc-1, human cervical carcinoma cell line HELA, human colorectal carcinoma cell line HCT116, etc. were purchased from American type culture collection and were preserved by this laboratory. All leukemia cell lines (except MV4-11), gastric carcinoma cell lines and thyrophyma cell lines were cultured in RPMI-1640 complete medium containing 10% fetal bovine serum, 100 U/mL penicillin and 100 μg/mL streptomycin at 37° C. in 5% CO2. The remaining cell lines were cultured in DMEM complete medium containing 10% fetal bovine serum (containing 20% MV4-11 cell), 100 U/mL penicillin and 100 µg/mL streptomycin at 37° C. in 5% CO2.
(§7) Cell suspension with cell concentration of 1-2×10^4/mL was adjusted with the complete cell medium and inoculated in a 96-well plate, with each well filled with 200 μl cell suspension that was cultured overnight. On the next day, supernatant was sucked and abandoned (supernatant was sucked upon centrifugation of suspension cells), and then cells were processed with test compounds at gradient concentrations respectively. Meanwhile, a negative control group free from drug and a solvent control group with equal volume were set, and the DMSO concentration was 0.1%. Each dose group was provided with three wells and cultured at 37° C. in 5% CO2. After 72 hours, 20 μl 5 mg/mL MTT reagent was added to each well, and cultured for another 2 to 4 hours, the supernatant was abandoned; 150 μL DMSO was added to each well again, vibrated and mixed evenly for 15 minutes; the absorbance (A) values (proportional to living cell amount) were determined with a microplate reader (λ=570 nm) and averaged. […] Experiment was repeated for 3 times at least. Experimental data were expressed with means, data statistics were tested by t, and P<0.05 means that difference has a statistical significance. The cell proliferation inhibition effects of all compounds as follows are expressed by IC50 or inhibition rate.

A further assay has as its target VEGFR2 (Homo sapiens, UniProt P35968). In words: Kinase inhibition activity test, isotope labeling (γ-33P-ATP): VEGFR2. In kind it is biochemical. Conditions: for IC50: ATP 90 μM, read-out: VEGFR2 IC50 value (inhibitory activity value); for Activity inhibition rate VEGFR2 (h) / inhibition at 10 µM: test compound at a concentration of 10 μM; for inhibition at 10 µM: read-out: Activity inhibition rate VEGFR2 (h). The method, then: as §1, §2, §3

The subject of assay [2] is human pancreatic carcinoma cell line panc-1. In words: In vitro tumor cell proliferation inhibition (MTT): panc-1. In kind it is cell-based.
Source text: as §4, §5, §6, §7

The next assay concerns the target PDGFRα (Homo sapiens, UniProt P16234). In words: Kinase inhibition activity test, isotope labeling: PDGFRα. It is filed as biochemical. To be noted: for Activity inhibition rate PDGFRα (h) / inhibition at 10 µM: test compound at a concentration of 10 μM; for IC50: ATP 120 μM, read-out: PDGFRα IC50 value (inhibitory activity value); for inhibition at 10 µM: read-out: Activity inhibition rate PDGFRα (h). The procedure:
as §1, §2, §3

SMILES strings stand for the structures.

Chain of PDGFRα (P16234 24-1089): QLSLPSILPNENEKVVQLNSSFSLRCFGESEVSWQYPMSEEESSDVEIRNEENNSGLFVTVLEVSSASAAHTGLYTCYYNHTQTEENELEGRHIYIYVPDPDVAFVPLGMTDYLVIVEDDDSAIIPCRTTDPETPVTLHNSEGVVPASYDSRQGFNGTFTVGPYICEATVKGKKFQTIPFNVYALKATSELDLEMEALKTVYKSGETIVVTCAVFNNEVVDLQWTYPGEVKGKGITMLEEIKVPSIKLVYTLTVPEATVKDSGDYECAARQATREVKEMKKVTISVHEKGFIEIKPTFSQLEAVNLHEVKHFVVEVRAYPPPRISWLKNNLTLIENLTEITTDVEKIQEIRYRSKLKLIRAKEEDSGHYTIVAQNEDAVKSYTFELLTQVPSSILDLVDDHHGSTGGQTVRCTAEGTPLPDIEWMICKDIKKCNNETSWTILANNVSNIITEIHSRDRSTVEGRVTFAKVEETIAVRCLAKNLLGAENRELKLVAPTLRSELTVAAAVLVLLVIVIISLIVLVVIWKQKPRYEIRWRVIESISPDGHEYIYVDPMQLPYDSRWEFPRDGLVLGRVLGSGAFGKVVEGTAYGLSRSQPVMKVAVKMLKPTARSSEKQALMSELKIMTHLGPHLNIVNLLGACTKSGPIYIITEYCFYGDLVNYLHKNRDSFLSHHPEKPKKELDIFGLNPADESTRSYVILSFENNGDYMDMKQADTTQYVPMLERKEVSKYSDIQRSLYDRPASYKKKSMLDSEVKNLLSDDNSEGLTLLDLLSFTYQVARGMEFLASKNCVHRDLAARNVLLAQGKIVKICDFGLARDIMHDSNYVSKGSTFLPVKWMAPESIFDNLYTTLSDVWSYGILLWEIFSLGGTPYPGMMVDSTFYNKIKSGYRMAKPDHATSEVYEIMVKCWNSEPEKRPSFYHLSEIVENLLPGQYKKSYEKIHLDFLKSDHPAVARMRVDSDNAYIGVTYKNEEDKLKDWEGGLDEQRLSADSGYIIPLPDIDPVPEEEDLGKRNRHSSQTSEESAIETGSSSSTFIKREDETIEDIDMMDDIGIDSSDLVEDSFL
Chain of FGFR2 (P21802 22-821): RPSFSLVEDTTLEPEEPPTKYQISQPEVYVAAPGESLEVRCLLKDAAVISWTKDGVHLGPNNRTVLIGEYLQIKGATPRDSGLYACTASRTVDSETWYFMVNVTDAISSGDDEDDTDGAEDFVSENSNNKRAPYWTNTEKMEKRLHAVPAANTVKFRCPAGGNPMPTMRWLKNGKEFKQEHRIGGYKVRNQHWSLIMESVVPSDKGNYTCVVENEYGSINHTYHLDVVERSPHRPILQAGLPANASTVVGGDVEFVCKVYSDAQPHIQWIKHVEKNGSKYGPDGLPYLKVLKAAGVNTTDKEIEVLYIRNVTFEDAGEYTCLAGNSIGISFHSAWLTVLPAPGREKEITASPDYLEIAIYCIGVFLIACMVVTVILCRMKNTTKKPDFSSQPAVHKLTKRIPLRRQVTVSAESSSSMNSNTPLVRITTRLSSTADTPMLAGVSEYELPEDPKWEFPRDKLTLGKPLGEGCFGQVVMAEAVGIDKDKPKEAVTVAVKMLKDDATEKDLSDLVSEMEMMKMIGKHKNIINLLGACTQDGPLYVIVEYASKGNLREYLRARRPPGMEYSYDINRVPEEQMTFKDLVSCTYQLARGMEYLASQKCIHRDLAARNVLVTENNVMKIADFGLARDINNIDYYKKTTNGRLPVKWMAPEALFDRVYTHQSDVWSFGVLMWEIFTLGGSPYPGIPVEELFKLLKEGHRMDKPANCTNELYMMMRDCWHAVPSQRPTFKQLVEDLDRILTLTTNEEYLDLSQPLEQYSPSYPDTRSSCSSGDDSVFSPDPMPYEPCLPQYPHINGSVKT
Chain of VEGFR2 (P35968 20-1356): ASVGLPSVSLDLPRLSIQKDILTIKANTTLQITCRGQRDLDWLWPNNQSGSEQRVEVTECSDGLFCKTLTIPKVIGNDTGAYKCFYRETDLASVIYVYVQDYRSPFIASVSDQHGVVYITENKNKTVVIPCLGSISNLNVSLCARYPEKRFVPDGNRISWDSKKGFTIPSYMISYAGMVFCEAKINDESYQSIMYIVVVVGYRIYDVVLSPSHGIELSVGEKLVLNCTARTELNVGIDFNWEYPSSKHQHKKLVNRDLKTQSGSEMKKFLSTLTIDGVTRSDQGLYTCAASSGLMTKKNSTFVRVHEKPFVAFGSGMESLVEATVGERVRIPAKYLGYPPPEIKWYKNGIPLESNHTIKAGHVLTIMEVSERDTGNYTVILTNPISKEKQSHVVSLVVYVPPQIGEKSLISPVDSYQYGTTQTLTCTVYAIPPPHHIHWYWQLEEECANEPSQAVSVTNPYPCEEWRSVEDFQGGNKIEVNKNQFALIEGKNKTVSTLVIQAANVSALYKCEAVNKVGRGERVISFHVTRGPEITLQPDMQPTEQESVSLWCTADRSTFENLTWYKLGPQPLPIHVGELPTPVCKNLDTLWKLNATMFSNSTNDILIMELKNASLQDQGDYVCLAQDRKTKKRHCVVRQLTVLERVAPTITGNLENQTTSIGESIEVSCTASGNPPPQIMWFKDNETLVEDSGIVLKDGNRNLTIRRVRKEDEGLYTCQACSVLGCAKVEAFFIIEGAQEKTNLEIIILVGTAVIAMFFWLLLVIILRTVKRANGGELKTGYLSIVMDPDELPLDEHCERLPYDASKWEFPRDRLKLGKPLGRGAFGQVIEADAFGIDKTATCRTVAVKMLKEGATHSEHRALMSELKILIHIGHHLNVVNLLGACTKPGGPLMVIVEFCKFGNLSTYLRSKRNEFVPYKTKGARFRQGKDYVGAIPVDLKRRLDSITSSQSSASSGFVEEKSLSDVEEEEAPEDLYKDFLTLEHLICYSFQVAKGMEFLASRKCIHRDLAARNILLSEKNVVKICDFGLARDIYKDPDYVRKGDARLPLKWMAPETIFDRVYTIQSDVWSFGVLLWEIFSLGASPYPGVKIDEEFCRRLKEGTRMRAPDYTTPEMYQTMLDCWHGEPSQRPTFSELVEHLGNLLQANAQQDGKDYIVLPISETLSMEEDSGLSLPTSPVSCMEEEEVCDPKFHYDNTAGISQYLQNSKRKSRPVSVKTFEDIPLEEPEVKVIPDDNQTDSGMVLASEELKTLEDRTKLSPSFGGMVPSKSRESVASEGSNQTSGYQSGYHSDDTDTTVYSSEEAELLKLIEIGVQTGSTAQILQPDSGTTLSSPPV

As usually defined, the IC50 is the concentration that inhibits the measured activity by half. Consider `O=C(Nc1ccccc1)Nc1ccc(Oc2ncnc3[nH]ncc23)cc1` [4a-15, 1-(4-((1H-pyrazolopyrimidine-4-yl)oxy)phenyl)-3-phenylurea], for which the “Activity inhibition rate FGFR2 (h)” value at FGFR2 was found to be 100%. Further, the concentration for half-maximal inhibition (IC50) in assay [1] (72 hours) is 320 nM; at VEGFR2 it was 28 nM; in assay [2] (72 hours) it was < 50000 nM. The “Activity inhibition rate VEGFR2 (h)” value at VEGFR2 amounted to 100%. For the same molecule, the “Activity inhibition rate PDGFRα (h)” value on PDGFRα is 48%.

With `C[C@H](NC(=O)Nc1ccc(Oc2ncnc3[nH]ncc23)cc1)c1ccccc1` [4a-18, (S)-1-(4-((1H-pyrazolopyrimidine-4-yl)oxy)phenyl)-3-(1-phenethyl)urea], the “Activity inhibition rate FGFR2 (h)” value on FGFR2 amounted to 22%. Further, the IC50 is 112 nM in assay [1] (72 hours) and < 50000 nM in assay [2] (72 hours). Further, the “Activity inhibition rate VEGFR2 (h)” value on VEGFR2 stood at 95%. In addition, at PDGFRα, the “Activity inhibition rate PDGFRα (h)” value was found to be 96%.

`C[C@@H](NC(=O)Nc1ccc(Oc2ncnc3[nH]ncc23)cc1)c1ccccc1` [4a-19, (R)-1-(4-((1H-pyrazolopyrimidine-4-yl)oxy)phenyl)-3-(1-phenethyl)urea]: on FGFR2, the “Activity inhibition rate FGFR2 (h)” value stood at 17%. In addition, the IC50 in assay [1] (72 hours) is 124 nM; in assay [2] (72 hours), < 50000 nM. For the same molecule, at VEGFR2, the “Activity inhibition rate VEGFR2 (h)” value amounted to 92%. Besides, on PDGFRα, the “Activity inhibition rate PDGFRα (h)” value came out at 84%.

On to `CC(C)(C)c1cc(NC(=O)Nc2ccc(Oc3ncnc4[nH]ncc34)cc2)n(-c2ccccc2)n1` [4a-24], for which the “Activity inhibition rate FGFR2 (h)” value on FGFR2 is listed as >50%. The values for the IC50 (in assay [1] (72 hours); at VEGFR2; in assay [2] (72 hours)) were 0.4 nM, 14 nM and < 50000 nM, respectively. The “Activity inhibition rate VEGFR2 (h)” value on VEGFR2 is 100%. Besides, on PDGFRα, the “Activity inhibition rate PDGFRα (h)” value is listed as >50%.

Consider `CC(C)(C)c1cc(NC(=O)Nc2ccc(Oc3ncnc4[nH]ncc34)cc2)on1` [4a-25], for which the half-maximal inhibitory concentration (IC50) on FGFR2 is < 10000 nM; in assay [1] (72 hours), 0.3 nM; on VEGFR2 it was 12 nM; in assay [2] (72 hours), 3000 to 10000 nM; on PDGFRα, 1400 nM. Further, the “Activity inhibition rate FGFR2 (h)” value at FGFR2 is recorded as >50%. Also, the “Activity inhibition rate VEGFR2 (h)” value at VEGFR2 stood at 100%. Further, the “Activity inhibition rate PDGFRα (h)” value on PDGFRα is recorded as >50%.

For orientation: inhibition means the share of the control response that was lost under treatment. Consider `CC(C)(C)c1cc(NC(=O)Nc2ccc(Oc3ncnc4[nH]ncc34)cc2)no1` [4a-26], for which the results for the inhibition at 10 µM on FGFR2, at VEGFR2 and on PDGFRα were > 50%, 100% and > 50%, respectively. The half-inhibitory concentration (IC50) in assay [1] (Homo sapiens, MV4-11, 72 h) is 0.3 nM; on VEGFR2 it was 12 nM; in assay [2] (Homo sapiens, PANC-1, 72 hours) it was 3000 to 10000 nM.

Take `O=C(Nc1ccc(Oc2ncnc3[nH]ncc23)cc1)Nc1cc(C(F)(F)F)on1` [4a-28]: the inhibition at 10 µM on FGFR2 was > 50%; at VEGFR2 it was 100%; at PDGFRα, > 50%. The 50% inhibitory concentration (IC50) in assay [1] (Homo sapiens, MV4-11, 72 h) was 1.2 nM; in assay [2] (Homo sapiens, PANC-1, 72 hours) it was < 50000 nM.

Turning to `CC(C)(C)c1cc(NC(=O)Nc2ccc(Oc3ncnc4[nH]ncc34)c(F)c2)no1` [4a-31], the IC50 on FGFR2 was < 10000 nM; in assay [1] (72 hours) it was 0.4 nM; at VEGFR2, 11 nM; in assay [2] (72 hours), 3000 to 10000 nM; on PDGFRα, < 10000 nM. Moreover, on FGFR2, the “Activity inhibition rate FGFR2 (h)” value is given as >50%. Moreover, the “Activity inhibition rate VEGFR2 (h)” value at VEGFR2 came to 100%. Moreover, at PDGFRα, the “Activity inhibition rate PDGFRα (h)” value is recorded as >50%.

In the case of `O=C(Nc1cccc(Nc2ncnc3[nH]ncc23)c1)Nc1ccc(F)c(Cl)c1` [4b-1], the inhibition at 10 µM on FGFR2 is 22%; at VEGFR2, 93%; on PDGFRα, > 30%. The IC50 was < 50000 nM in assay [1] (Homo sapiens, MV4-11, 72 h) and < 50000 nM in assay [2] (Homo sapiens, PANC-1, 72 hours).

On to `C[C@@H](NC(=O)Nc1ccc(Nc2ncnc3[nH]ncc23)cc1)c1ccccc1` [4b-2, (R)-1-(4-(1H-pyrazolopyrimidine-4-amido)phenyl)-3-(1-phenethyl)urea], for which the “Activity inhibition rate FGFR2 (h)” value on FGFR2 (10 µM) was found to be 66%. Besides, the IC50 in assay [1] (72 hours) was 8030 nM; in assay [2] (Homo sapiens, PANC-1, 72 hours), < 50000 nM. Also, the inhibition at 10 µM at VEGFR2 was 88%; on PDGFRα, > 30%.

Values taken from patent US9828375B2, “4-position substituted pyrazolopyrimidine derivative, and use thereof in drug preparation” (Guangxi Wuzhou Pharmaceuticals (Group) Co., Ltd., priority 2012, dated 2017).
